Where no end group is shown, it is not given here. [ ]: non-standard residue; d: D form. Lys(Me2) = CN(C)CCCC[C@H](N)C(=O)O
What was measured:
Assay in all cases: Histone peptide microarray
Type in all cases: binding, human
Conditions in all cases: sheet "Array Heatmap"
AIRE (PP) = system: AIRE (PP)
Summary of the method: (§1)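 A peptide microarray holding 293 synthetic histone peptides with individual or combinatorial modifications was probed with each GST-PHD protein at 0.5 μM. Values represent mean intensity (±SD) from four replicates.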

BAZ2B = system: BAZ2B
Summary of the method: as §1

BPTF (PB) = system: BPTF (PB)
Summary of the method: as §1

CHD4 (PPCC) = system: CHD4 (PPCC)
Summary of the method: as §1

CHD5 (PCC) = system: CHD5 (PCC)
Summary of the method: as §1

CHD5 (PPCC) = system: CHD5 (PPCC)
Summary of the method: as §1

DIDO1 = system: DIDO1
Summary of the method: as §1

DPF2 (PPC2W2) = system: DPF2 (PPC2W2)
Summary of the method: as §1

ING1 = system: ING1
Summary of the method: as §1

ING2 = system: ING2
Summary of the method: as §1

ING3 = system: ING3
Summary of the method: as §1

ING4 = system: ING4
Summary of the method: as §1

ING5 = system: ING5
Summary of the method: as §1

KDM4C (TTP) = system: KDM4C (TTP)
Summary of the method: as §1

KDM5A (1) = system: KDM5A (1)
Summary of the method: as §1

KDM5A (3) = system: KDM5A (3)
Summary of the method: as §1

KDM5B (1) = system: KDM5B (1)
Summary of the method: as §1

KDM5B (3) = system: KDM5B (3)
Summary of the method: as §1

KDM7A = system: KDM7A
Summary of the method: as §1

MLL5 = system: MLL5
Summary of the method: as §1

MORC3 (CW) = system: MORC3 (CW)
Summary of the method: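 Each reader, produced as a GST fusion and purified, was tested at 0.5 μM on synthetic histone peptides (293 in total) carrying single or combinatorial marks. Intensities averaged over four replicates.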

PHF13 = system: PHF13
Summary of the method: as §1

PHF21A = system: PHF21A
Summary of the method: as §1

PHF23 = system: PHF23
Summary of the method: as §1

PHF2 = system: PHF2
Summary of the method: as §1

PHF8 = system: PHF8
Summary of the method: as §1

PHRF1 (RP) = system: PHRF1 (RP)
Summary of the method: as §1

RAG2 = system: RAG2
Summary of the method: as §1

SP140L = system: SP140L
Summary of the method: as §1

TAF3 = system: TAF3
Summary of the method: as §1

TRIM66 (PB) = system: TRIM66 (PB)
Summary of the method: as §1

Substance: H3K4A + K9me2 (1-15): H3 1-15 (ARTAQTAR[Lys(Me2)]STGGKA; UniProt P68431 2-16, looked up, variant K4A)
- Array Heatmap signal, AIRE (PP) (AIRE (PP); GST-tagged AIRE (PP), arrays performed twice, total replicate number n = 4): 0.5312
- Array Heatmap signal, BAZ2B (BAZ2B; GST-tagged BAZ2B, arrays performed twice, total replicate number n = 4): 0.512
- Array Heatmap signal, BPTF (PB) (BPTF (PB); GST-tagged BPTF (PB), arrays performed twice, total replicate number n = 4): 0.4333
- Array Heatmap signal, CHD4 (PPCC) (CHD4 (PPCC); GST-tagged CHD4 (PPCC), arrays performed twice, total replicate number n = 4): 0.6182
- Array Heatmap signal, CHD5 (PCC) (CHD5 (PCC); GST-tagged CHD5 (PCC), arrays performed twice, total replicate number n = 4): 0.7736
- Array Heatmap signal, CHD5 (PPCC) (CHD5 (PPCC); GST-tagged CHD5 (PPCC), arrays performed twice, total replicate number n = 4): 0.6167
- Array Heatmap signal, DIDO1 (DIDO1; GST-tagged DIDO1, arrays performed twice, total replicate number n = 4): 0.8787
- Array Heatmap signal, DPF2 (PPC2W2) (DPF2 (PPC2W2); GST-tagged DPF2 (PPC2W2), arrays performed twice, total replicate number n = 4): 0.7164
- Array Heatmap signal, ING1 (ING1; GST-tagged ING1, arrays performed twice, total replicate number n = 4): 0.7124
- Array Heatmap signal, ING2 (ING2; GST-tagged ING2, arrays performed twice, total replicate number n = 4): 0.695
- Array Heatmap signal, ING3 (ING3; GST-tagged ING3, arrays performed twice, total replicate number n = 4): 0.5843
- Array Heatmap signal, ING4 (ING4; GST-tagged ING4, arrays performed twice, total replicate number n = 4): 0.5574
- Array Heatmap signal, ING5 (ING5; GST-tagged ING5, arrays performed twice, total replicate number n = 4): 0.4518
- Array Heatmap signal, KDM4C (TTP) (KDM4C (TTP); GST-tagged KDM4C (TTP), arrays performed twice, total replicate number n = 4): 0.6461
- Array Heatmap signal, KDM5A (1) (KDM5A (1); GST-tagged KDM5A (1), arrays performed twice, total replicate number n = 4): 0.5206
- Array Heatmap signal, KDM5A (3) (KDM5A (3); GST-tagged KDM5A (3), arrays performed twice, total replicate number n = 4): 0.6587
- Array Heatmap signal, KDM5B (1) (KDM5B (1); GST-tagged KDM5B (1), arrays performed twice, total replicate number n = 4): 0.7016
- Array Heatmap signal, KDM5B (3) (KDM5B (3); GST-tagged KDM5B (3), arrays performed twice, total replicate number n = 4): 0.59
- Array Heatmap signal, KDM7A (KDM7A; GST-tagged KDM7A, arrays performed twice, total replicate number n = 4): 0.6423
- Array Heatmap signal, MLL5 (MLL5; GST-tagged MLL5, arrays performed twice, total replicate number n = 4): 0.7648
- Array Heatmap signal, MORC3 (CW) (MORC3 (CW); GST-tagged MORC3 (CW), arrays performed twice, total replicate number n = 4): 0.5677
- Array Heatmap signal, PHF13 (PHF13; GST-tagged PHF13, arrays performed twice, total replicate number n = 4): 0.6939
- Array Heatmap signal, PHF21A (PHF21A; GST-tagged PHF21A, arrays performed twice, total replicate number n = 4): 0.468
- Array Heatmap signal, PHF23 (PHF23; GST-tagged PHF23, arrays performed twice, total replicate number n = 4): 0.6377
- Array Heatmap signal, PHF2 (PHF2; GST-tagged PHF2, arrays performed twice, total replicate number n = 4): 0.6167
- Array Heatmap signal, PHF8 (PHF8; GST-tagged PHF8, arrays performed twice, total replicate number n = 4): 0.5196
- Array Heatmap signal, PHRF1 (RP) (PHRF1 (RP); GST-tagged PHRF1 (RP), arrays performed twice, total replicate number n = 4): 0.5557
- Array Heatmap signal, RAG2 (RAG2; GST-tagged RAG2, arrays performed twice, total replicate number n = 4): 0.4111
- Array Heatmap signal, SP140L (SP140L; GST-tagged SP140L, arrays performed twice, total replicate number n = 4): 0.3864
- Array Heatmap signal, TAF3 (TAF3; GST-tagged TAF3, arrays performed twice, total replicate number n = 4): 0.4571
- Array Heatmap signal, TRIM66 (PB) (TRIM66 (PB); GST-tagged TRIM66 (PB), arrays performed twice, total replicate number n = 4): 0.6262

Substance: H4K5ac + K8me1 + K12ac + K16ac: H4 1-23
- Array Heatmap value (peptide array signal) (AIRE (PP); AIRE (PP), each array performed twice, total n = 4): 0.5672
- Array Heatmap value (peptide array signal) (BAZ2B; BAZ2B, each array performed twice, total n = 4): 0.5032
- Array Heatmap value (peptide array signal) (BPTF (PB); BPTF (PB), each array performed twice, total n = 4): 0.382
- Array Heatmap value (peptide array signal) (CHD4 (PPCC); CHD4 (PPCC), each array performed twice, total n = 4): 0.5762
- Array Heatmap value (peptide array signal) (CHD5 (PCC); CHD5 (PCC), each array performed twice, total n = 4): 0.8607
- Array Heatmap value (peptide array signal) (CHD5 (PPCC); CHD5 (PPCC), each array performed twice, total n = 4): 0.5973
- Array Heatmap value (peptide array signal) (DIDO1; DIDO1, each array performed twice, total n = 4): 0.7292
- Array Heatmap value (peptide array signal) (DPF2 (PPC2W2); DPF2 (PPC2W2), each array performed twice, total n = 4): 0.6672
- Array Heatmap value (peptide array signal) (ING1; ING1, each array performed twice, total n = 4): 0.5458
- Array Heatmap value (peptide array signal) (ING2; ING2, each array performed twice, total n = 4): 0.602
- Array Heatmap value (peptide array signal) (ING3; ING3, each array performed twice, total n = 4): 0.4952
- Array Heatmap value (peptide array signal) (ING4; ING4, each array performed twice, total n = 4): 0.5013
- Array Heatmap value (peptide array signal) (ING5; ING5, each array performed twice, total n = 4): 0.3988
- Array Heatmap value (peptide array signal) (KDM4C (TTP); KDM4C (TTP), each array performed twice, total n = 4): 0.5456
- Array Heatmap value (peptide array signal) (KDM5A (1); KDM5A (1), each array performed twice, total n = 4): 0.5072
- Array Heatmap value (peptide array signal) (KDM5A (3); KDM5A (3), each array performed twice, total n = 4): 0.4998
- Array Heatmap value (peptide array signal) (KDM5B (1); KDM5B (1), each array performed twice, total n = 4): 0.7009
- Array Heatmap value (peptide array signal) (KDM5B (3); KDM5B (3), each array performed twice, total n = 4): 0.4848
- Array Heatmap value (peptide array signal) (KDM7A; KDM7A, each array performed twice, total n = 4): 0.4269
- Array Heatmap value (peptide array signal) (MLL5; MLL5, each array performed twice, total n = 4): 0.5641
- Array Heatmap value (peptide array signal) (MORC3 (CW); MORC3 (CW), each array performed twice, total n = 4): 0.4169
- Array Heatmap value (peptide array signal) (PHF13; PHF13, each array performed twice, total n = 4): 0.643
- Array Heatmap value (peptide array signal) (PHF21A; PHF21A, each array performed twice, total n = 4): 0.4984
- Array Heatmap value (peptide array signal) (PHF23; PHF23, each array performed twice, total n = 4): 0.5588
- Array Heatmap value (peptide array signal) (PHF2; PHF2, each array performed twice, total n = 4): 0.5076
- Array Heatmap value (peptide array signal) (PHF8; PHF8, each array performed twice, total n = 4): 0.4058
- Array Heatmap value (peptide array signal) (PHRF1 (RP); PHRF1 (RP), each array performed twice, total n = 4): 0.4565
- Array Heatmap value (peptide array signal) (RAG2; RAG2, each array performed twice, total n = 4): 0.2535
- Array Heatmap value (peptide array signal) (SP140L; SP140L, each array performed twice, total n = 4): 0.3759
- Array Heatmap value (peptide array signal) (TAF3; TAF3, each array performed twice, total n = 4): 0.2847
- Array Heatmap value (peptide array signal) (TRIM66 (PB); TRIM66 (PB), each array performed twice, total n = 4): 0.6845

— PMC6979384, “Characterization of the plant homeodomain (PHD) reader family for their histone tail interactions” (Epigenetics & Chromatin, 2020)
